Assays:
SEM cell line = test: Annexin V flow assay for apoptosis and cell death, SEM; format: cell-based; settings: Annexin V staining
Excerpt: (§1) FIGS. 3a-3c show three graphs illustrating the dose dependent inhibition of proliferation of Compound 1 in SEM, P12, and Loucy cells as measured by MTS assay. […] Compound 1 was further analyzed for its effect on cell apoptosis and cell death using a flow based assay using Annexin V staining.
Compound 2 was further analyzed for its effect on cell apoptosis and cell death using a flow based assay using Annexin V staining.

RHOA = molecular target: T1, RHOA (Homo sapiens, UniProt P61586); test: RHOA activation pull down assay (Western blot); format: cell-based; settings: Western Blot (FIG. 11a)
T1 construct: endogenous in cells
T1 sequence (P61586 whole entry): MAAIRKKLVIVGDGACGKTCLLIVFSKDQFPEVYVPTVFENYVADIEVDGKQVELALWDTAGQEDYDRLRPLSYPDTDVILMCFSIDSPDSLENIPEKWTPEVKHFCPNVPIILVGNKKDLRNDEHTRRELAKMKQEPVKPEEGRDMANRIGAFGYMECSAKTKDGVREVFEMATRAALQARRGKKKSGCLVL
Excerpt: (§2) Compound 1 was further tested to evaluate its effect on RHOA and RAS activation.

CDC42 = molecular target: T2, CDC42 (Homo sapiens, UniProt P60953); test: CDC42 activation pull down assay (Western blot); format: cell-based; settings: Western Blot (FIG. 10a)
T2 construct: endogenous in cells
T2 sequence (P60953 whole entry): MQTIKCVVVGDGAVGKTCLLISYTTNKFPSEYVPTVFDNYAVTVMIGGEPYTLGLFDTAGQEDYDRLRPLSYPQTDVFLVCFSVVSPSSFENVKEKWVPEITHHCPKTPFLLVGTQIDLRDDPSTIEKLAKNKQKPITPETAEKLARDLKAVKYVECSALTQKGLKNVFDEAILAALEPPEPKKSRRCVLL
Experimental: To determine which of these compounds should be further pursued, a biochemical pull down assay was performed to confirm specific inhibition of Rac activation indicated by disruption of the interaction between Rac and […]. The assay initially required treatment of cells followed by pull down and analysis with Western blot. The cells were first starved in serum free media for 2 hours. They were then re-suspended in serum-containing medium and inhibitors added at desired concentration. Following incubation for the desired length of time, the cells were pelleted and lysed with Magnesium Lysis Buffer (Millipore Mg^2+ lysis/wash buffer). The Rac protein and any bound proteins were then collected with Pak Beads (Millipore Rac/cdc42 Assay Reagent (PAK-1 PBD, agarose). Bound protein was subsequently removed with lysis buffer and subject to Western Blot analysis.
Compound 1 was tested to evaluate its effect on CDC42 activation. In this case, beads for the immunoprecipitation were coated with a CDC42 effector domain. […] The Western Blot and pull down analyses are also shown for DMSO and […].

PIK3C3 (hVPS34) = PIK3C3 (hVPS34) (Homo sapiens, UniProt Q8NEB9); test: Kinase screening; format: biochemical
Sequence of PIK3C3 (hVPS34) (Q8NEB9 whole entry): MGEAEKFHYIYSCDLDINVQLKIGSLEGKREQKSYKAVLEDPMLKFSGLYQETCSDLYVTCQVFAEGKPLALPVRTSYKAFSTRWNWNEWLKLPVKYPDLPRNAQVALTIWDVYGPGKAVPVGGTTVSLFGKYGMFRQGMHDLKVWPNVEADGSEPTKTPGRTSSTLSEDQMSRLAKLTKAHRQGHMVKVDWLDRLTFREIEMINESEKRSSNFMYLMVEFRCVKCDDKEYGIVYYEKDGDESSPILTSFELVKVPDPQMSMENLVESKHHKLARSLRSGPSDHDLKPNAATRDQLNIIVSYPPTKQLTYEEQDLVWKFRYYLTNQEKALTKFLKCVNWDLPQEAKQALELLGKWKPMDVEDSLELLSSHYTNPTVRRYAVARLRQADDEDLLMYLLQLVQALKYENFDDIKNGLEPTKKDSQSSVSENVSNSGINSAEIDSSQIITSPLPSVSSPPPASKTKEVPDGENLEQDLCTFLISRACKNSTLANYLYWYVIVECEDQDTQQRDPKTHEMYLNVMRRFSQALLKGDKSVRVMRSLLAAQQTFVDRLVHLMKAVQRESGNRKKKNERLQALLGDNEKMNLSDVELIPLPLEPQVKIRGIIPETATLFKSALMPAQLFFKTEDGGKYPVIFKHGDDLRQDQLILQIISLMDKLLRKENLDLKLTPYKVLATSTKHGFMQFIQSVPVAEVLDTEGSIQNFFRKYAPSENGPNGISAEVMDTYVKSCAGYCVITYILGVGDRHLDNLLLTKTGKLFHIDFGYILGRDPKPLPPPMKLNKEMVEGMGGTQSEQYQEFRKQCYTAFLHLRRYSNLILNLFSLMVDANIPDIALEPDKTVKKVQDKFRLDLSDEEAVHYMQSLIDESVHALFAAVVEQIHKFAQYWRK
Experimental: (§3) Compound 1 was tested for its efficacy in inhibiting activities of 40 kinases and binding with 12 GPCRs both as an antagonist and an agonist.

ROCK2 = ROCK2 (Homo sapiens, UniProt O75116); test: Kinase screening; format: biochemical
Sequence of ROCK2 (O75116 whole entry, species assumed): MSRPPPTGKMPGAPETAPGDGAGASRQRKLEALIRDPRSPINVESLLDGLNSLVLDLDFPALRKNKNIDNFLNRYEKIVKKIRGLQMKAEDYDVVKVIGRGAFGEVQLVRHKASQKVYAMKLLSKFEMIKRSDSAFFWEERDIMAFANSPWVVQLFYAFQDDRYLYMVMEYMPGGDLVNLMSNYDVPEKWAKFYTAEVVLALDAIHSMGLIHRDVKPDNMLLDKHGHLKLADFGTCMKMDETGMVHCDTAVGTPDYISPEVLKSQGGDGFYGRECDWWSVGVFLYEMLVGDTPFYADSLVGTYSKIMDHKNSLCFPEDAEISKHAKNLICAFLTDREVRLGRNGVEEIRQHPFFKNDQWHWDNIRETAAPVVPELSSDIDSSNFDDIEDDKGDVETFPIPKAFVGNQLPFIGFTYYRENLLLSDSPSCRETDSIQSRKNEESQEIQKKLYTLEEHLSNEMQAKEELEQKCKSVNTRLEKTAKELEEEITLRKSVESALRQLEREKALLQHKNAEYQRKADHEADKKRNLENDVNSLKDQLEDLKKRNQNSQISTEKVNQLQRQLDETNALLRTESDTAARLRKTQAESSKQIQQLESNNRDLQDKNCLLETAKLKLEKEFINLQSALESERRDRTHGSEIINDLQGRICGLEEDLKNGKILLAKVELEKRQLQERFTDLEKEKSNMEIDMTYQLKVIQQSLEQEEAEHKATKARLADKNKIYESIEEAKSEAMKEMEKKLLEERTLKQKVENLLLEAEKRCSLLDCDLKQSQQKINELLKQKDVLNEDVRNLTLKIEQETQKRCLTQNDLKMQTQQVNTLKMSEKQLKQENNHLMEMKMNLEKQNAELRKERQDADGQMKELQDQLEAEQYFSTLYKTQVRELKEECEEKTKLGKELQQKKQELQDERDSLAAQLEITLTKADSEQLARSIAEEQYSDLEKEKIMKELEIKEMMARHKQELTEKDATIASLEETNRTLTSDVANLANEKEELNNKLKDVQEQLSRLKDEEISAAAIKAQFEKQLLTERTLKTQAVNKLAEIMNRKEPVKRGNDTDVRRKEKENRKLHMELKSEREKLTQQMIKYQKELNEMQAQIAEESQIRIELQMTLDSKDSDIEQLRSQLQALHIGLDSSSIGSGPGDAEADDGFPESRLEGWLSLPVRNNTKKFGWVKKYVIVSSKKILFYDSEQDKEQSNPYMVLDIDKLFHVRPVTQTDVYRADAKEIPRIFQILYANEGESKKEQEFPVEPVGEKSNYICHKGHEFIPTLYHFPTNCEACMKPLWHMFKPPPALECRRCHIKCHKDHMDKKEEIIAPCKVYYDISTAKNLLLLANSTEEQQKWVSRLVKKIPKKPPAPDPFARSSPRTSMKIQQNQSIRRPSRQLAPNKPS
Experimental: as §3

PIK3C2B (PI3K-C2 beta) = PIK3C2B (PI3K-C2 beta) (Homo sapiens, UniProt O00750); test: Kinase screening; format: biochemical
Experimental: as §3

ROCK1 = ROCK1 (Homo sapiens, UniProt Q13464); test: Kinase screening; format: biochemical
Sequence of ROCK1 (Q13464 whole entry, species assumed): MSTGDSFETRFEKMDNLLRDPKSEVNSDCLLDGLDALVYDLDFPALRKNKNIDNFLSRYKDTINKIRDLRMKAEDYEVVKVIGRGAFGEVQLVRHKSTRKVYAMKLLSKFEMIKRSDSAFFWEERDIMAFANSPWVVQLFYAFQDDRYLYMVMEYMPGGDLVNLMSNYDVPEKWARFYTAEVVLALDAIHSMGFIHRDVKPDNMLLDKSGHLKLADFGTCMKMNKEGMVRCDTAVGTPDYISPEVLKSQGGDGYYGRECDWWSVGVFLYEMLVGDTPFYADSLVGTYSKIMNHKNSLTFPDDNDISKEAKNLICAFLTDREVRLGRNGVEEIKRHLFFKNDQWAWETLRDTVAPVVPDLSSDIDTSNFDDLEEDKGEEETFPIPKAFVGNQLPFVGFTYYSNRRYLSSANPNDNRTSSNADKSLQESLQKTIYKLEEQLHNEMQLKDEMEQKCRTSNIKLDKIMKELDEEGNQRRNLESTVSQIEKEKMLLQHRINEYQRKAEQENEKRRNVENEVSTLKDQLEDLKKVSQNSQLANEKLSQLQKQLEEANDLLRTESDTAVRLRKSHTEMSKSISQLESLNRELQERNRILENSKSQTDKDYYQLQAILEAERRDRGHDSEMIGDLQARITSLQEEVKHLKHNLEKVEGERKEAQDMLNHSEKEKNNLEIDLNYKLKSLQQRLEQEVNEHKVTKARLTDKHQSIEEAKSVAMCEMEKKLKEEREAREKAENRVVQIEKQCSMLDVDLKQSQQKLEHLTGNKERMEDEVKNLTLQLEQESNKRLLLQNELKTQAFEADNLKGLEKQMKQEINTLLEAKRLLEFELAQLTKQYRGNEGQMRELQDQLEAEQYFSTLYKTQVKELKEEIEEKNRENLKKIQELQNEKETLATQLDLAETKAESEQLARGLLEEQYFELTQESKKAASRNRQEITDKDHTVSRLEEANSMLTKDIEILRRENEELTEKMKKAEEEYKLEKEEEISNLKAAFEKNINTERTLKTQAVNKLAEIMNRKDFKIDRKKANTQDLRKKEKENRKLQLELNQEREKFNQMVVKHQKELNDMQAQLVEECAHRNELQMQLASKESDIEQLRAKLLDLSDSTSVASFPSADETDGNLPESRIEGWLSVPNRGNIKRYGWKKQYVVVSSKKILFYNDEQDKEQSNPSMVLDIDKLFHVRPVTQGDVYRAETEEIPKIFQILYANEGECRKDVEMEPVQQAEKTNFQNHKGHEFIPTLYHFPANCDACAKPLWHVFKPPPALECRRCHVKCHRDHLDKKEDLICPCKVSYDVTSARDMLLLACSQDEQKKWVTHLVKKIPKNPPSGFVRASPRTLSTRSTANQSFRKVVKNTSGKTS
Experimental: as §3

MAP3K2 (MEKK2) = MAP3K2 (MEKK2) (Homo sapiens, UniProt Q9Y2U5); test: Kinase screening; format: biochemical
Sequence of MAP3K2 (MEKK2) (Q9Y2U5 whole entry, species assumed): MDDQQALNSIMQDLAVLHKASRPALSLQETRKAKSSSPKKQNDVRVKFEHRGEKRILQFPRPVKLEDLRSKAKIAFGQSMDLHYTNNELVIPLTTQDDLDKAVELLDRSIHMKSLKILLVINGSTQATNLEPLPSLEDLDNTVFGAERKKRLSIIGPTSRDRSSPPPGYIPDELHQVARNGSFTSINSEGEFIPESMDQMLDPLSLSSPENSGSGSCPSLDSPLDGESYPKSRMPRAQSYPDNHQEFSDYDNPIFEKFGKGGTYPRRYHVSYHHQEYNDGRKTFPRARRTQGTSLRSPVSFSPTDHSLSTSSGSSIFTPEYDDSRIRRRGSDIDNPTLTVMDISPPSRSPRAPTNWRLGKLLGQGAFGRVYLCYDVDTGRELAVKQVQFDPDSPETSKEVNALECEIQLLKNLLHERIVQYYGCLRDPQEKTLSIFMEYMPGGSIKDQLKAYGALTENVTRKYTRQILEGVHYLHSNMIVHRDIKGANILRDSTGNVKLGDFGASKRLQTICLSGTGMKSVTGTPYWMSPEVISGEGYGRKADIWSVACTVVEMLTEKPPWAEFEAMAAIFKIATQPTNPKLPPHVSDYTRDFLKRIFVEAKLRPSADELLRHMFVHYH
Experimental: as §3

Tiam1-Rac complex = Tiam1-Rac complex (Homo sapiens, UniProt P63000); test: Homologous time resolved fluorescence (HTRF) binding assay
Experimental: (§4) Compound 1 was tested for its efficacy in binding with Rac1 in two independent binding assays, i.e., 2D NMR spectroscopy and Homologous time resolved fluorescence assay (HTRF).
(§5) In the 2D NMR assay, samples containing 50 μM Rac1 and 250 μM or 400 μM Compound 1 were used.
(§6) Compound 2 was tested for its efficacy in binding with Rac1 in two independent binding assays, i.e., 2D NMR spectroscopy and Homologous time resolved fluorescence assay (HTRF).
(§7) In the 2D NMR assay, a sample containing 50 μM Rac1 and 250 μM Compound 2 was used.

SEM leukemic cell line = test: In vivo SEM leukemia model in NSG mice; settings: 250 mg/Kg twice a day for 21 days
Experimental: (§8) Compound 1 was assayed for its pharmacokinetics and anti-leukemia activities in mice. Specifically, a SEM leukemic cell line was labeled with a vector encoding the mCherry tag and Luciferase. 500,000 labeled cells were injected into immunodeficient mice (NSG mice). After establishment of leukemia (as assessed by bioluminescent imaging), mice were treated with Compound 1 at a dose 250 mg/Kg or a vehicle for 21 days twice a day. During treatment, mice were imaged every other day and BLI recorded and analyzed. 2 hours after the last dose, animals were sacrificed and organs harvested for PK and PD analysis.
FIGS. 8b and 8c show the bioluminescence data obtained from the mice treated with Compound 1 and a vehicle when the mice were imaged in a supine position and a prone position, respectively.

SEM cells = test: Proliferation assay in SEM leukemia cells; format: cell-based; settings: read-out: IC50, inhibition of proliferation
Experimental: (§9) Dose Dependent Inhibition of Proliferation The 100 compounds selected from the initial in silico screen were assayed for inhibition of proliferation in two leukemia cell lines, SEM and P12 by Cell Titer Glo. The cells for the proliferation assay were spun down and re-suspended. The cell suspension was then divided and the compound to be tested added in desired concentrations and subsequently plated. Following an incubation period, the Cell Titer Glo reagent (Promega CellTiter 96® Aqueous Non-Radioactive Cell Proliferation Assay) was added and allowed to incubate. The absorbance is subsequently measured at 490 nm using a plate reader. Each compound was analyzed for its effects on cell proliferation.
(§10) The lead compound, i.e. Compound 1, was analyzed for its effect on cell proliferation at various doses on three different leukemia cell lines: SEM, P12, and Loucy. In order to quantitate the percentage inhibition of cell proliferation, Cell Titer Glo analysis was completed as described in Example 2 above.
FIGS. 3a-3c show three graphs illustrating the dose dependent inhibition of proliferation of Compound 1 in SEM, P12, and Loucy cells as measured by MTS assay. […] Compound 1 was further analyzed for its effect on cell apoptosis and cell death using a flow based assay using Annexin V staining. […]

Rac = Rac activation Elisa on spleen infiltrated by leukemic blasts; format: in vivo; settings: mice, 250 mg/Kg twice a day for 21 days, compared to a vehicle
Experimental: as §8

Rac1 = Rac1 (Homo sapiens, UniProt P63000); test: 2D NMR spectroscopy binding assay; settings: 50 μM Rac1 and 250 μM or 400 μM Compound 1
Experimental: as §4, §5, §6, §7

P12-Ichikawa cells = test: Proliferation assay in P12 leukemia cells; format: cell-based; settings: Homo sapiens, read-out: IC50, inhibition of proliferation
Experimental: as §9, §10, §1

12 GPCRs = test: GPCR profiling, whole panel; format: binding; settings: summary of Table 2, antagonist and agonist
Experimental: as §3

RAS = RAS activation pull down assay (Western blot); format: cell-based; settings: Western Blot (FIG. 11b)
Excerpt: as §2

P12 cell line = test: Annexin V flow assay for apoptosis and cell death, P12; format: cell-based; settings: Annexin V staining
Excerpt: as §1

[1] = test system: normal bone marrow hematopoietic and progenitor cells; test: Colony forming unit assay (CFU assay) for toxicity; format: cell-based; settings: semi-solid media, different doses
Experimental: Compound 1 was tested for toxicity in a colony forming unit assay (CFU assay), which was performed by plating normal bone marrow hematopoietic and progenitor cells in semi-solid media supplemented with different doses of Compound 1, NSC23766, and DMSO.
Compound 2 was also tested for toxicity in a colony forming unit assay (CFU assay), which was performed by plating normal bone marrow hematopoietic and progenitor cells in semi-solid media supplemented with different doses of Compound 2, NSC23766, and DMSO.

RHOA activation (RHOA): no significant effect
total CDC42 levels (CDC42): no significant effect
CDC42 activation (CDC42; pull down): dose dependent reduction
inhibition percentage (PIK3C3 (hVPS34)): −12.5 percentage
inhibition percentage (ROCK2): −2.0 percentage
inhibition percentage (PIK3C2B (PI3K-C2 beta)): −10.9 percentage
inhibition percentage (ROCK1): −4.6 percentage
inhibition percentage (MAP3K2 (MEKK2)): 5.9 percentage
binding in the HTRF assay (Tiam1-Rac complex): no binding was observed
relative weight of the mice (SEM leukemic cell line; vs vehicle group): nearly identical
IC50 (SEM cells): 43.8 µM
binding to Rac1 by 2D NMR (Rac1): did not indicate any binding
IC50 (P12-Ichikawa cells): 39.2 µM
binding to the 12 GPCRs tested (12 GPCRs): no significant binding
Compound: CCc1ccc(CN(C)C(=O)CCc2nnc(CCc3c[nH]c4ccccc34)o2)nc1 (racemic) [Compound 1]
cell apoptosis and cell death (SEM cell line): caused cells apoptosis and cell death
bioluminescence in the mice (SEM leukemic cell line; imaged in supine or prone position, vs vehicle): significantly reduced
Rac activation status in spleen (Rac): reduced Rac activation
RAS activation (RAS): no significant effect
cell apoptosis and cell death (P12 cell line): caused cells apoptosis and cell death
toxicity toward normal bone marrow cells [1]: did not exhibit toxicity
